Measurements as given in US10149818B2 (UCB PHARMA GMBH, priority 2010, dated 2018).
Converted amounts (≈) assume the structure as drawn.

Experiments:
[1] = tested on: subjects with partial-onset seizures; experiment: PK-PD modeling of seizure frequency, Emax model, pooled clinical trials (Example 54); type: in vivo, human
Source text: Objectives of the PK-PD analysis were to evaluate and describe the correlation between the LCM plasma concentration over time (PK parameter) and the reduction of daily seizures over time (PD parameter) based on the pooled data from the previous clinical human trials.
The evaluation of PK-PD modeling was done based on the Emax model.
The following Table 8 summarizes the PK-PD modeling results using the Emax model.
The slope of the linear regression is equal to the mean daily number of seizures.
Based on the relative difference of the individual slopes during Titration and Maintenance Phase vs Baseline slope and the approximated AUCT,ss,m, the PK-PD evaluation was performed using a linear model, the Emax model, and the Emax 100 model. […] Finally, the Emax model had the lowest weighted sum of squares and was therefore selected as the most appropriate PK-PD model to describe the data. […] The AUC50 is defined as the AUC[…],ss that is needed in individuals to achieve 50% of the maximum effect (decrease in seizure frequency).

[2] = IR tablets twice daily; average distribution volume of 50 liters; cited from earlier work

COC[C@@H](NC(C)=O)C(=O)NCc1ccccc1 [lacosamide, (R)-2-Acetamido-N-benzyl-3-methoxypropionamide]
decrease in partial seizure frequency at AUC50 ([1]; 50% of the maximum effect): 35% | decrease of seizures as % of the maximum effect ([1]; AUC of 67 μg/mL*h (mean dose 200 mg LCM bid in a typical subject)): 65% | AUC,tau,ss corresponding to kd ([1]; Emax model): 35 µg·h/mL | EC50 ([1]; Homo sapiens, Emax model, plasma concentration, read-out: kd, concentration for half of the maximum effect): 2.92 µg/mL (≈ 11.7 µM) | decrease of seizures as % of the maximum effect ([1]; human, in vivo): 74% | maximum dosage-normalized lacosamide steady state plasma levels (Cmax, ss, norm) [2]: 40 to 43 ng/mL/mg
